Data on 1 molecule can be found in US11351221B2, “SMAC mimetic” (Medivir AB, priority 2009, dated 2022).

The target in experiment [1] is T1, XIAP (Homo sapiens, UniProt P98170).
T1 construct: endogenous in cells; host or cells: MDA-MB-231 (ATCC), soluble hypotonic lysate
Kind of experiment: Caspase-3 derepression assay. In kind it is biochemical. To be noted: MDA-MB-231 hypotonic lysate activated with cytochrome c and dATP; zDEVD-R110(2) substrate. As to the method:
Cell pellet was washed one time by resuspending in 5 mL hypotonic lysis buffer (20 mM HEPES, pH7.5, 10 mM KCl, 1.5 mM MgCl2, 1.0 mM EDTA, 1.0 mM DTT) and recollected by centrifugation. Pellet was next resuspended in 1 volume of hypotonic lysis buffer supplemented with a complete protease inhibitor tablet (Roche) and allowed to swell on ice for 30 minutes. Cells were disrupted by approximately 50 passages through a 27 gauge needle. Lysis was monitored by light microscopy. Lysate was centrifuged at 12000×g for 10 minutes at 4° C. to remove membrane fraction, unlysed cells and debris. The soluble fraction was collected for protein concentration determination and subsequent assay analysis.
The hypotonic lysate (25 μg protein), 50 μg/mL cytochrome c and 10 mM dATP were combined in a microcentrifuge tube to a final volume of 9 μl in hypotonic lysis buffer followed by addition of test compound and incubated for 30 minutes at room temp. Following incubation 50 μl of hypotonic lysis buffer containing 5 μM of pro-fluorescent rhodamine-110(2) based caspase-3 substrate zDEVD-R110(2) was added and fluorescence intensity was monitored over time. Activation of the lysate by addition of cytochrome c and dATP results in apoptosome formation and subsequent activation of caspases-9 and -3.

Experiment [2] has as its system SKOV-3 ovarian tumor cell. Kind of experiment: SKOV-3 cytotoxicity (MTT assay). In kind it is cell-based. To be noted: Homo sapiens, SK-OV-3 cells, 72 hrs, concentration giving 50% cell survival. As to the method:
SKOV-3 ovarian tumor cell cytotoxicity data were generated substantially as follows. The MTT (3-(4,5-Dimethylthiazol-2-yl)-2,5-diphenyltetrazolium bromide) assay is an example of an assay that has been used for measuring cell growth as previously described (Hansen, M. B., Nielsen, S. E., and Berg, K. (1989) J. Immunol Methods 119, 203-210) and incorporated herein by reference in its entirety. Briefly, SK-OV-3 cells were seeded in 96-well plates in McCoy's medium containing 10% fetal bovine serum albumin (5,000 per well) and incubated overnight at 37° C. The next day, test compounds were added at various concentrations (0.003-10 μM) and the plates were incubated at 37° C. for an additional 72 hrs. This incubation time was optimal for measuring inhibitory effects of different analogs. Fifty microliters of 5 mg/mL MTT reagent to each well was added and the plates were incubated at 37° C. for 3 hours. At the end of the incubation period, 50 microliters of DMSO was added to each well to dissolve cells and the optical density (OD) of the wells was measured using a microplate reader (Victor^2 1420, Wallac, Finland) at 535 nm. Cell survival (CS) was calculated by the following equation: CS=(OD treated well/mean OD control wells)×100%
The CC50, defined as the drug concentration that results in 50% CS, was derived by calculating the point where the dose-response curve crosses the 50% CS point using GraphPad Prism.
(In general: Tetrazolium dyes change colour on reduction, which living cells bring about.)

T1 sequence (P98170 whole entry): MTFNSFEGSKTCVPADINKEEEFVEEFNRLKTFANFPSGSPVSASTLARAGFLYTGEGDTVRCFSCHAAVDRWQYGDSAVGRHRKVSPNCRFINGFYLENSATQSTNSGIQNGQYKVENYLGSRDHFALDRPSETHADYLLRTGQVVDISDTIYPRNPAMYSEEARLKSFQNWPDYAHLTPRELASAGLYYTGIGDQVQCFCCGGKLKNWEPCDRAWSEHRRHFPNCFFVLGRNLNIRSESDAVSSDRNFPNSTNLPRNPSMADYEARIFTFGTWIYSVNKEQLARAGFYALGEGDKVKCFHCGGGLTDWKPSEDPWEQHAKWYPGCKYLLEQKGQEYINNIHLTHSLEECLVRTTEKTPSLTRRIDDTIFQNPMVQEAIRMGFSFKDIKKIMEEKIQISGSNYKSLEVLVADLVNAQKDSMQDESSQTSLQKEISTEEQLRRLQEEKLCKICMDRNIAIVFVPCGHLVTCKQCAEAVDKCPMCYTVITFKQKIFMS

The term IC50 denotes the concentration needed to halve the response being measured. For orientation: CC50 means the concentration that lowers cell viability or growth by half. Read a high CC50 as better tolerance by the cells. As to `CN[C@@H](C)C(=O)N[C@H](C(=O)N1C[C@@H](O)C[C@H]1Cc1c(-c2[nH]c3cc(F)ccc3c2C[C@@H]2C[C@H](O)CN2C(=O)[C@@H](NC(=O)[C@H](C)NC)[C@@H](C)OC)[nH]c2cc(F)ccc12)[C@@H](C)OC` [Compound 5], half-maximal inhibition in experiment [1] (IC50) was put at 360 pM. Besides, the CC50 in experiment [2] was 130 pM.
